Data from patent publication US20260091026A1, “METHODS OF TREATING INFLAMMATORY DISEASES” (INTERLINE THERAPEUTICS, INC., priority 2023, published 2026).

Legend:
[1] = tested on: THP1-Dual cells, NF-κB pathway (SEAP); test: THP-1 Dual cell SEAP assay (L18-MDP stimulated); type: cell-based; details: Homo sapiens, 10 ng/mL L18-MDP, 20-24 h, SEAP readout, read-out: IFNγ THP1 IC50
Description: THP1-Dual™ cells (InvivoGen Cat #thpd-nfis) allow simultaneous assessment of the NF-κB pathway, by monitoring the activity of secreted embryonic alkaline phosphatase (SEAP) as well as the IRF pathway, by assessing the activity of a secreted luciferase (Lucia). Cells were cultured according to manufacturers' recommendations. For the assay, cell concentration was adjusted to 7.14×10^5 cells/mL in assay media (RPMI 1640, 2 mM L-Glutamine, 25 mM HEPES, 10% fetal bovine serum (heat-inactivated for 30 min at 56° C.), Pen-Strep (100 U/mL)) and 35 μL of cell suspension (˜25,000 cells) per well were added to a flat bottom 384-well plate (white opaque). Plate was centrifuged at 300 g for 2 min, compounds were added in serial dilution series according to the plate layout (volumes ˜500 nL-0.0152 nL) and plate was incubated at 37° C. in 5% CO2 for 30 min. Using assay media, a L18-MDP stock solution, that results in a final concentration of 10 ng/mL L18-MDP in each well when adding 15 μL to each well, was prepared. 15 μL of L18-MDP stock solution was added to each well, while 15 μL of assay media was added to the negative control wells. Plates were subsequently incubated at 37° C. in 5% CO2 overnight (20-24 h).
For the SEAP assay: without disturbing the cells at the bottom of the well, 15 μL supernatant was transferred to a clear 384-well flat bottom plate and 35 μL QUANTI-Blue Solution per well was added. Following a 2 h incubation at 37° C., the optical density (OD) was measured at 620-655 nm using a microplate reader (PheraStar FS microplate reader with protocol for OD 620-655 nm).
Values of media-only wells were subtracted and % inhibition for each compound concentration relative to the DMSO/L18-MDP-treated controls was calculated. Inhibition values+/−SD were fitted by non-linear regression using Prism software (GraphPad PRISM Software) to calculate IC50 values.

RIPK2 (KD)/XIAP (BIR2) = biological target: T1, RIPK2 (KD)/XIAP (BIR2) (Homo sapiens, UniProt O43353); test: RIPK2-XIAP binding competition PPI assay (TR-FRET); details: for Emax: 50 nM of GSK583 = -100% activity, read-out: PPI Amax; for IC50: GST-RIPK2 / His-XIAP (BIR2)-avi, 120 min at 23° C.
T1 construct: made in house; host or cells: baculovirus-infected Sf9 cells
Text: The ability of selected compounds of Formula (I) to inhibit the binding of an His-XIAP (BIR2)-avi fusion protein to a GST-RIPK2 fusion protein was quantified employing the TR-FRET-based competition assay as described in the following paragraphs.
Recombinant fusion protein of N-terminal Glutathione-S-Transferase (GST) and a fragment of human RIPK2 (amino acids 1-310 of accession number 043353), expressed in baculovirus infected Sf9 cells, purified via glutathione affinity chromatography, was used as GST-RIPK2 fusion protein. Recombinant fusion protein of N-terminal 6xHistidine (His), a fragment of human XIAP (amino acids 152-231 of accession number P98170), and C-terminal avi tag, expressed in baculovirus infected Sf9 cells, purified via Nickel NTA affinity chromatography, was used as the His-XIAP (BIR2)-avi fusion protein.
For the assay, a working solution of 1 nM GST-RIPK2, 25 nM His-XIAP (BIR2)-avi, 6 nM Anti-His-XL665 […] (Revvity Catalogue No. 61HISXLB), and 0.5 nM Anti-GST-Tb(Revvity Catalogue No. 61GSTTLB) in 25 mM Tris-HCl 7.5, 0.5 mM ethylene glycol-bis(2-aminoethylether)-N,N,N′,N′-tetraacetic acid (EGTA), 10 mM magnesium chloride (MgCl2), 2.5 mM dithiothreitol (DTT), 0.01% (w/v) bovine serum albumin (BSA), 0.005% (w/v) Pluronic F-127 (Sigma), 0.5 mM sodium ortho-vanadate, 5 mM-Glycerophosphate disodium salt hydrate (BGP) was prepared. 50 nL of a 100-fold concentrated solution of each test compound in DMSO was dispensed via acoustic dispensing into a white low volume 384-well microtiter plate (Perkin Elmer Catalogue No. 6008280). Subsequently, 5 μL of the assay working solution were added.
The resulting mixture was incubated 120 min at 23° C. Subsequently, the amount of complex formed by the GST-RIPK2, XIAP (BIR2)-avi, Anti-His-XL665, and Anti-GST-Tb was evaluated by measurement of the resonance energy transfer from the Tb-cryptate to the XL665. Therefore, the fluorescence emissions at 520 nm and 665 nm after excitation at 337 nm were measured in a TR-FRET reader, e.g. a Pherastar FS(BMG Labtechnologies, Offenburg, Germany) or an Envision (PerkinElmer). The ratio of the emissions at 665 nm and at 520 nm was taken as the measure of the amount of the complex. The data were normalized (assay reaction without inhibitor=0% activity, 50 nM of GSK583=−100% activity).

T1 sequence (O43353 1-310): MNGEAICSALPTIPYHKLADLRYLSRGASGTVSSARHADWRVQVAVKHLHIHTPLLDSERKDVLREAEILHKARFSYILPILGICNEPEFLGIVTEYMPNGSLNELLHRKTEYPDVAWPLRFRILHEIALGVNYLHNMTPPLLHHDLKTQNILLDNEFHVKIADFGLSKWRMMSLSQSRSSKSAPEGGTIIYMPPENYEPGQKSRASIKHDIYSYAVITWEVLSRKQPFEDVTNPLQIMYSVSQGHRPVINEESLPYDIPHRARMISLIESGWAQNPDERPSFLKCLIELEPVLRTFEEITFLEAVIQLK

SMILES | IC50 [1] | Emax (RIPK2 (KD)/XIAP (BIR2)) | IC50 (RIPK2 (KD)/XIAP (BIR2))
COc1cc2ncc(-c3cc(C(=O)NCc4n[nH]c5cccc(F)c45)n(C)n3)n2cc1S(=O)(=O)C(C)(C)C [Example 19, 3-(6-(tert-butylsulfonyl)-7-methoxyimidazo[1,2-a]pyridin-3-yl)-N-((4-fluoro-1H-indazol-3-yl)methyl)-1-methyl-1H-pyrazole-5-carboxamide] | 100 to 500 nM | ≥ 80% | < 10 nM
COc1cc2ncc(-c3cc(C(=O)NCc4cccc5ccnn45)n(C)n3)n2cc1S(=O)(=O)C(C)(C)C [Example 20, 3-(6-(tert-butylsulfonyl)-7-methoxyimidazo[1,2-a]pyridin-3-yl)-1-methyl-N-(pyrazolo[1,5-a]pyridin-7-ylmethyl)-1H-pyrazole-5-carboxamide] | > 2500 nM | ≥ 80% | 100 to 1000 nM
COc1cc2ncc(-c3cc(C(=O)NCc4cccn5ccnc45)n(C)n3)n2cc1S(=O)(=O)C(C)(C)C [Example 21, 3-(6-(tert-butylsulfonyl)-7-methoxyimidazo[1,2-a]pyridin-3-yl)-N-(imidazo[1,2-a]pyridin-8-ylmethyl)-1-methyl-1H-pyrazole-5-carboxamide] | > 2500 nM | ≥ 80% | 100 to 1000 nM
COc1cc2ncc(-c3cc(C(=O)NCc4cn5ccccc5n4)n(C)n3)n2cc1S(=O)(=O)C(C)(C)C [Example 22, 3-(6-(tert-butylsulfonyl)-7-methoxyimidazo[1,2-a]pyridin-3-yl)-N-(imidazo[1,2-a]pyridin-2-ylmethyl)-1-methyl-1H-pyrazole-5-carboxamide] | > 2500 nM | ≤ 30% | > 1000 nM
COc1cc2ncc(-c3cc(C(=O)NCc4cc5ccccn5n4)n(C)n3)n2cc1S(=O)(=O)C(C)(C)C [Example 23, 3-(6-(tert-butylsulfonyl)-7-methoxyimidazo[1,2-a]pyridin-3-yl)-1-methyl-N-(pyrazolo[1,5-a]pyridin-2-ylmethyl)-1H-pyrazole-5-carboxamide] | 500 to 2500 nM | ≤ 30% | > 1000 nM
COc1cc2ncc(-c3cc(C(=O)NCc4ccn(C)n4)n(C)n3)n2cc1S(=O)(=O)C(C)(C)C [Example 24, 3-(6-(tert-butylsulfonyl)-7-methoxyimidazo[1,2-a]pyridin-3-yl)-1-methyl-N-((1-methyl-1H-pyrazol-3-yl)methyl)-1H-pyrazole-5-carboxamide] | 500 to 2500 nM | ≥ 80% | 100 to 1000 nM
COc1cc2ncc(-c3cc(C(=O)NCc4cnn(C)c4)n(C)n3)n2cc1S(=O)(=O)C(C)(C)C [Example 25, 3-(6-(tert-butylsulfonyl)-7-methoxyimidazo[1,2-a]pyridin-3-yl)-1-methyl-N-((1-methyl-1H-pyrazol-4-yl)methyl)-1H-pyrazole-5-carboxamide] | > 2500 nM | ≤ 30% | > 1000 nM
COc1cc2ncc(-c3cc(C(=O)NCc4ccccn4)n(C)n3)n2cc1S(=O)(=O)C(C)(C)C [Example 26, 3-(6-(tert-butylsulfonyl)-7-methoxyimidazo[1,2-a]pyridin-3-yl)-1-methyl-N-(pyridin-2-ylmethyl)-1H-pyrazole-5-carboxamide] | 500 to 2500 nM | ≥ 80% | 100 to 1000 nM
COc1cc2ncc(-c3cc(C(=O)NCc4cccnc4)n(C)n3)n2cc1S(=O)(=O)C(C)(C)C [Example 27, 3-(6-(tert-butylsulfonyl)-7-methoxyimidazo[1,2-a]pyridin-3-yl)-1-methyl-N-(pyridin-3-ylmethyl)-1H-pyrazole-5-carboxamide] | > 2500 nM | 55 to 80% | > 1000 nM
COc1cc2ncc(-c3cc(C(=O)NCc4ccccc4)n(C)n3)n2cc1S(=O)(=O)C(C)(C)C [Example 28, N-benzyl-3-(6-(tert-butylsulfonyl)-7-methoxyimidazo[1,2-a]pyridin-3-yl)-1-methyl-1H-pyrazole-5-carboxamide] | 500 to 2500 nM | ≥ 80% | 100 to 1000 nM
COc1cc2ncc(-c3cc(C(=O)NCc4ccncc4)n(C)n3)n2cc1S(=O)(=O)C(C)(C)C [Example 29, 3-(6-(tert-butylsulfonyl)-7-methoxyimidazo[1,2-a]pyridin-3-yl)-1-methyl-N-(pyridin-4-ylmethyl)-1H-pyrazole-5-carboxamide] | > 2500 nM | ≤ 30% | > 1000 nM
C[C@@H](NC(=O)c1cc(-c2cnc3cc(OCCO)c(S(=O)(=O)C(C)(C)C)cn23)nn1C)c1ccccc1 [Example 32, (R)-3-(6-(tert-butylsulfonyl)-7-(2-hydroxyethoxy)imidazo[1,2-a]pyridin-3-yl)-1-methyl-N-(1-phenylethyl)-1H-pyrazole-5-carboxamide] | < 100 nM | ≥ 80% | < 10 nM
COc1cc2ncc(-c3cc(C(=O)N[C@H](C)C4CC4)n(C)n3)n2cc1S(=O)(=O)C(C)(C)C [Example 35, (R)-3-(6-(tert-butylsulfonyl)-7-methoxyimidazo[1,2-a]pyridin-3-yl)-N-(1-cyclopropylethyl)-1-methyl-1H-pyrazole-5-carboxamide] | > 2500 nM | 30 to 55% | > 1000 nM
COc1cc2ncc(-c3cc(C(=O)N[C@@H](C)C4CC4)n(C)n3)n2cc1S(=O)(=O)C(C)(C)C [Example 36, (S)-3-(6-(tert-butylsulfonyl)-7-methoxyimidazo[1,2-a]pyridin-3-yl)-N-(1-cyclopropylethyl)-1-methyl-1H-pyrazole-5-carboxamide] | > 2500 nM | 30 to 55% | > 1000 nM
COc1cc2ncc(-c3cc(C(=O)NC(C)C)n(C)n3)n2cc1S(=O)(=O)C(C)(C)C [Example 37, 3-(6-(tert-butylsulfonyl)-7-methoxyimidazo[1,2-a]pyridin-3-yl)-N-isopropyl-1-methyl-1H-pyrazole-5-carboxamide] | > 2500 nM | 30 to 55% | > 1000 nM
COc1cc2ncc(-c3cc(C(=O)NCC4CC4)n(C)n3)n2cc1S(=O)(=O)C(C)(C)C [Example 38, 3-(6-(tert-butylsulfonyl)-7-methoxyimidazo[1,2-a]pyridin-3-yl)-N-(cyclopropylmethyl)-1-methyl-1H-pyrazole-5-carboxamide] | > 2500 nM | 30 to 55% | > 1000 nM
COc1cc2ncc(-c3cc(C(=O)NCC4CCC4)n(C)n3)n2cc1S(=O)(=O)C(C)(C)C [Example 39, 3-(6-(tert-butylsulfonyl)-7-methoxyimidazo[1,2-a]pyridin-3-yl)-N-(cyclobutylmethyl)-1-methyl-1H-pyrazole-5-carboxamide] | > 2500 nM | ≥ 80% | 100 to 1000 nM
COc1cc2ncc(-c3cc(C(=O)NCC4CCCC4)n(C)n3)n2cc1S(=O)(=O)C(C)(C)C [Example 40, 3-(6-(tert-butylsulfonyl)-7-methoxyimidazo[1,2-a]pyridin-3-yl)-N-(cyclopentylmethyl)-1-methyl-1H-pyrazole-5-carboxamide] | > 2500 nM | ≥ 80% | 100 to 1000 nM
